# Columns and labels:
# Type in all cases: in vivo
# [1] = system: Echinochloa oryzoides (Ard.) Fritsch.; test: Preemergence weed control under flooded paddy conditions, ECHORC (Watergrass (Calif.)); conditions: flooded paddy, rated three to four weeks after treatment
# [2] = system: Sagittaria pygmaea, L.; test: Preemergence weed control under flooded paddy conditions, SAGPY (Arrowhead (Pygmaea)); conditions: flooded paddy, rated three to four weeks after treatment
# [3] = system: Cyperus serotinus, Rottb.; test: Preemergence weed control under flooded paddy conditions, CYPSE (Flatsedge); conditions: rated three to four weeks after treatment
# [4] = system: Cyperus iria; test: Preemergence weed control under flooded paddy conditions, CYPIR (Rice Flatsedge); conditions: flooded paddy, rated three to four weeks after treatment
# [5] = system: Monochoria vaginalis, Presl.; test: Preemergence weed control under flooded paddy conditions, MOOVA (Monochoria); conditions: flooded paddy, rated three to four weeks after treatment
# [6] = 0.0313 kg/ha, preemergence weeds
# [7] = 0.0625 kg/ha, preemergence weeds
# [8] = 0.1250 kg/ha, preemergence weeds
# [9] = 0.2500 kg/ha, preemergence weeds
# [10] = Rate 0.0320 kg/ha, preemergence
# [11] = Rate 0.0620 kg/ha, preemergence
# [12] = Rate 0.1250 kg/ha, preemergence
# [13] = Rate 0.2500 kg/ha, preemergence
# [14] = Rate 0.5000 kg/ha, preemergence
# Also: meaning of each grade not given here.
Structure (SMILES),"herbicidal effect rating, ECHORC [1, 10]","herbicidal effect rating, ECHORC [1, 11]","herbicidal effect rating, ECHORC [1, 12]","herbicidal effect rating, ECHORC [1, 13]","herbicidal effect rating, ECHORC [1, 14]","herbicidal effect rating, SAGPY [2, 10]","herbicidal effect rating, SAGPY [2, 11]","herbicidal effect rating, SAGPY [2, 12]","herbicidal effect rating, SAGPY [2, 13]","herbicidal effect rating, SAGPY [2, 14]","herbicidal effect rating, CYPSE [3, 10]","herbicidal effect rating, CYPSE [3, 12]","herbicidal effect rating, CYPSE [3, 13]","herbicidal effect rating, CYPSE [3, 14]","herbicidal effect rating, CYPIR [4, 10]","herbicidal effect rating, CYPIR [4, 11]","herbicidal effect rating, CYPIR [4, 12]","herbicidal effect rating, CYPIR [4, 13]","herbicidal effect rating, CYPIR [4, 14]","herbicidal effect rating, MOOVA [5, 10]",further results
"COC(=O)C=CCOc1ccc(C)cc1-c1nsc2ccc(-n3c(=O)cc(C(F)(F)F)n(C)c3=O)cc12 [Example 188, Methyl 4-{{2-{5-[3,6-dihydro-3-methyl-2,6-dioxo-4-(trifluoromethyl)-1(2H)-pyrimidinyl]-1,2-benzisothiazol-3-yl}-p-tolyl}oxy}-2-butenoate, (E)- and (Z)-]",,,,,,,,,,,,,,,,,,,,,"herbicidal effect rating, ECHORC [1, 6]: 0.0; herbicidal effect rating, ECHORC [1, 7]: 0.0; herbicidal effect rating, ECHORC [1, 8]: 2.0; herbicidal effect rating, ECHORC [1, 9]: 8.0; herbicidal effect rating, SAGPY [2, 6]: 0.0; herbicidal effect rating, SAGPY [2, 7]: 0.0; herbicidal effect rating, SAGPY [2, 8]: 0.0; herbicidal effect rating, SAGPY [2, 9]: 0.0; herbicidal effect rating, CYPSE [3, 6]: 0.0; herbicidal effect rating, CYPIR [4, 6]: 0.0; herbicidal effect rating, CYPIR [4, 7]: 0.0; herbicidal effect rating, CYPIR [4, 8]: 0.0; herbicidal effect rating, CYPIR [4, 9]: 0.0; herbicidal effect rating, MOOVA [5, 6]: 9.0; herbicidal effect rating, MOOVA [5, 7]: 9.0; herbicidal effect rating, MOOVA [5, 8]: 9.0; herbicidal effect rating, MOOVA [5, 9]: 9.0"
"Cn1c(C(F)(F)F)cc(=O)n(-c2ccc3snc(COC(=O)c4ccccc4)c3c2)c1=O [Example 364, 2,4(1H,3H)-Pyrimidinedione, 3-[3-(hydroxymethyl)-1,2-benzisothiazol-5-yl]-1-methyl-6-(trifluoromethyl)-, benzoate (ester)]",3.0,5.0,6.0,6.0,7.0,4.0,4.0,5.0,9.0,9.0,3.0,5.0,6.0,7.0,7.0,7.0,9.0,9.0,9.0,9.0,"herbicidal effect rating, CYPSE [3, 11]: 3.0; herbicidal effect rating, MOOVA [5, 11]: 9.0; herbicidal effect rating, MOOVA [5, 12]: 9.0; herbicidal effect rating, MOOVA [5, 13]: 9.0; herbicidal effect rating, MOOVA [5, 14]: 9.0"
"Cn1c(C(F)(F)F)cc(=O)n(-c2ccc3snc(COC(=O)NCc4ccccc4)c3c2)c1=O [Example 390, 2,4(1H,3H)-Pyrimidinedione, 3-[3-(hydroxymethyl)-1,2-benzisothiazol-5-yl]-1-methyl-6-(trifluoromethyl)-, benzylcarbamate (ester)]",5.5,7.0,8.0,9.0,9.0,2.5,5.5,8.0,8.0,9.0,2.5,4.0,9.0,6.0,1.0,4.0,7.0,9.0,9.0,9.0,"herbicidal effect rating, MOOVA [5, 11]: 9.0; herbicidal effect rating, MOOVA [5, 12]: 9.0; herbicidal effect rating, MOOVA [5, 13]: 9.0; herbicidal effect rating, MOOVA [5, 14]: 9.0"

# Source: EP0908457B1, “3-(1,2-benzisothiazol- and isoxazol-5-Y1)-2,4(1H,3H)-pyrimidinedione or thione and 3-(1,2-benzisothiazol- and isoxazol-5-y1)-4(3H)-pyrimidinone or thione herbicidal agents” (BASF AKTIENGESELLSCHAFT, priority 1997, dated 1999)
